The values that follow come from ChEMBL document CHEMBL1275495, “Clinical isolates of Aspergillus species remain fully susceptible to voriconazole in the post-voriconazole era” (2008).

≈ marks a conversion by molar mass, not a printed value.

Holding throughout (assay type): functional
In assay [1] the test system is Aspergillus flavus. The assay is described as follows: Antifungal activity against Aspergillus flavus clinical isolate obtained from invasive aspergillosis patient after 48 hrs by CLSI method.
Assay [2] has as its system Aspergillus sp. The assay is described as follows: Antifungal activity against Aspergillus sp. clinical isolate obtained from invasive aspergillosis patient after 48 hrs by CLSI method.
The test system of assay [3] is Aspergillus. The assay is described as follows: Antifungal activity against Aspergillus species after 48 hrs by CLSI method.
For assay [4], the system named is Aspergillus sp. The assay is described as follows: Antifungal activity against Aspergillus sp. selected after drug exposure after 48 hrs by CLSI method.
For assay [5], the system named is Aspergillus fumigatus. The experiment in a line: Antifungal activity against Aspergillus fumigatus clinical isolate obtained from invasive aspergillosis patient after 48 hrs by CLSI method.
Assay [6] relates to Aspergillus sp. The assay is described as follows: Antifungal activity against Aspergillus sp. clinical isolate obtained from invasive aspergillosis patient selected after drug exposure after 48 hrs by CLSI method.
For assay [7], the system named is Aspergillus terreus. The experiment in a line: Antifungal activity against Aspergillus terreus clinical isolate obtained from invasive aspergillosis patient after 48 hrs by CLSI method.
Assay [8] deals with Aspergillus niger. The experiment in a line: Antifungal activity against Aspergillus niger clinical isolate obtained from invasive aspergillosis patient after 48 hrs by CLSI method.

Regarding `C[C@@H](c1ncncc1F)[C@](O)(Cn1cncn1)c1ccc(F)cc1F` [VORICONAZOLE], the Activity in assay [1] stood at 0.76 µg/mL; in assay [5] it was 0.46 µg/mL; in assay [7], 0.76 µg/mL; in assay [8] it was 0.76 µg/mL. Besides, the MIC in assay [2] was found to be 0.57 µg/mL (≈ 1.63 µM); in assay [3], 0.39 µg/mL (≈ 1.12 µM); in assay [4], 0.4 µg/mL (≈ 1.15 µM); in assay [6], 0.61 µg/mL (≈ 1.75 µM). Besides, the MIC50 in assay [2] was found to be 0.5 µg/mL (≈ 1.43 µM); in assay [3] it was 0.25 µg/mL (≈ 0.716 µM); in assay [4], 0.25 µg/mL (≈ 0.716 µM); in assay [6] it was 0.5 µg/mL (≈ 1.43 µM). Moreover, the MIC90 in assay [2] was determined as 1 µg/mL (≈ 2.86 µM); in assay [3], 0.5 µg/mL (≈ 1.43 µM); in assay [4], 0.5 µg/mL (≈ 1.43 µM); in assay [6] it was 1 µg/mL (≈ 2.86 µM).

The MIC is the lowest concentration found to suppress growth. The term MIC50 denotes the lowest concentration that inhibits either 50% of growth or 50% of the strains tested, depending on the study. High values mean weaker potency, low ones greater potency. For orientation: MIC90 means the lowest concentration that inhibits either 90% of growth or 90% of the strains tested, depending on the study.
